Laboratory results as given in article PMC12420824, “Discovery of a selective alpha-kinase 1 inhibitor for the rare genetic disease ROSAH syndrome” (Nature Communications, 2025).
Where “and” joins values, the source holds several entries; their conditions need not be identical. Identical values can stand only once.

Experiments:
MST4 = MST4 (Homo sapiens, UniProt Q9P289); assay: HotSpot kinase assay; details: read-out: % Enzyme Activity (relative to DMSO control), 10 uM
From the text: (§1) Additionally, a 10-dose dilution series of staurosporine and other enzyme-appropriate compounds were included as positive control inhibitors.

MLK2/MAP3K10 = MLK2/MAP3K10 (Homo sapiens, UniProt Q02779); assay: HotSpot kinase assay; details: read-out: % Enzyme Activity (relative to DMSO control), 10 uM
From the text: as §1

AMPK(A1/B1/G1) = AMPK(A1/B1/G1) (Homo sapiens, UniProt Q13131); assay: HotSpot kinase assay; details: read-out: % Enzyme Activity (relative to DMSO control), 10 uM
AMPK(A1/B1/G1), sequence (Q13131 whole entry): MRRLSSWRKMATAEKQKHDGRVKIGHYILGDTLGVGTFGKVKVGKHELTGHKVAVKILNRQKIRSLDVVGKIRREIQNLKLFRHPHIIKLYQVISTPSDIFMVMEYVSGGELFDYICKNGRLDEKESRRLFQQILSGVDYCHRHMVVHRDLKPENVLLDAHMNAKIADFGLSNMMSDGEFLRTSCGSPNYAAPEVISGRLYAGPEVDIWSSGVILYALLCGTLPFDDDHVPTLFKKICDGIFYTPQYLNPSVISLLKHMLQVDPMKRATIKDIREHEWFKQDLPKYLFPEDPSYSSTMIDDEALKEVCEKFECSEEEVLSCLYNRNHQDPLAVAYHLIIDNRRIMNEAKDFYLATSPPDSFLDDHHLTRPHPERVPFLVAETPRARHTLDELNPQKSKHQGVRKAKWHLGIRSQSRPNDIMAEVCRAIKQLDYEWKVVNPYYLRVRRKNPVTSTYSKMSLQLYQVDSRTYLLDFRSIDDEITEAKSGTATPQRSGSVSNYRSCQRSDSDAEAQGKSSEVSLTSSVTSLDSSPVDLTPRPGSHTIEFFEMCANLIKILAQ
AMPK(A1/B1/G1), sequence (Q9Y478 whole entry partner): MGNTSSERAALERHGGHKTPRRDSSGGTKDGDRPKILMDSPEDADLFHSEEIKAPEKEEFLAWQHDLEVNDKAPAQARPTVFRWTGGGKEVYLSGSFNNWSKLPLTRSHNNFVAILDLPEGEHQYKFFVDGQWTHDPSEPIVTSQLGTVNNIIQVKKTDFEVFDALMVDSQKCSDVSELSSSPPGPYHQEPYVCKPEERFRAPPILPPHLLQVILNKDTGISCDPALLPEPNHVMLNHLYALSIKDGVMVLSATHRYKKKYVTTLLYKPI
AMPK(A1/B1/G1), sequence (P54619 whole entry partner): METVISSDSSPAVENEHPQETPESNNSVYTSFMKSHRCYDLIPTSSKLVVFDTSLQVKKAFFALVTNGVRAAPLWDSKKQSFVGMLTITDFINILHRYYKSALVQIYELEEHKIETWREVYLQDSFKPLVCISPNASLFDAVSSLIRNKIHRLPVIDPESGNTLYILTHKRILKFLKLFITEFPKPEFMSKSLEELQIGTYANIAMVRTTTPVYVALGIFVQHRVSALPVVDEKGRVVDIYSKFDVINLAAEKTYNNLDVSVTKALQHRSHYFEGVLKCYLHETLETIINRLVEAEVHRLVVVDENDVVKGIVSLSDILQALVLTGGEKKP
From the text: as §1

FMS = FMS (Homo sapiens, UniProt P07333); assay: HotSpot kinase assay; details: read-out: % Enzyme Activity (relative to DMSO control), 10 uM
FMS, sequence (P07333 20-972): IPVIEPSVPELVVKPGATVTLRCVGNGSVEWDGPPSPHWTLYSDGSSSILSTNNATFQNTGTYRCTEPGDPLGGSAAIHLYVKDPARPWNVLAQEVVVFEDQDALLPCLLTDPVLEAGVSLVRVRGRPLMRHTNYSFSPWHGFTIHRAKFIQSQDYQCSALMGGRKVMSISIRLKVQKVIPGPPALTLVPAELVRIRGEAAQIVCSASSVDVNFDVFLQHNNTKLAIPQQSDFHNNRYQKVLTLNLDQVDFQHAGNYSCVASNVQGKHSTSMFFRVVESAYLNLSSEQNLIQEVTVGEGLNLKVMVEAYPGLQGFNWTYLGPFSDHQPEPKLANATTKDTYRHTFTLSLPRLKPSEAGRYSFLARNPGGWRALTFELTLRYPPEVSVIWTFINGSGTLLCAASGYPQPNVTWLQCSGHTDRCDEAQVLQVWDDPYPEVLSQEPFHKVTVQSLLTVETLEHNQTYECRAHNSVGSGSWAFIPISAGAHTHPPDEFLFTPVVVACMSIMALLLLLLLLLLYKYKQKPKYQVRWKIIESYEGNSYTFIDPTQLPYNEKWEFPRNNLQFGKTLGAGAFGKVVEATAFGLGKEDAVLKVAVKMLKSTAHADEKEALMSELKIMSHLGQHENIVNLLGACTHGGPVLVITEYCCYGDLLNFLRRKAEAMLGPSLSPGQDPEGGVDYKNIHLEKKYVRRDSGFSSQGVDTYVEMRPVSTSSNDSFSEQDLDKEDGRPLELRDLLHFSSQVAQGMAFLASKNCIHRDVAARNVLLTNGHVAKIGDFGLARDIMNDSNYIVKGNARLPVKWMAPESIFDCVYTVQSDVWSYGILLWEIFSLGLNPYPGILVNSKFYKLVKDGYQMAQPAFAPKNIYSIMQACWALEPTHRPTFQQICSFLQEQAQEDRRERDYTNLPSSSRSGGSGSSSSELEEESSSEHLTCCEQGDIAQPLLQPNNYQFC
From the text: as §1

PAK1 = PAK1 (Homo sapiens, UniProt Q13153); assay: HotSpot kinase assay; details: read-out: % Enzyme Activity (relative to DMSO control), 10 uM
From the text: as §1

MELK = MELK (Homo sapiens, UniProt Q14680); assay: HotSpot kinase assay; details: read-out: % Enzyme Activity (relative to DMSO control), 10 uM
MELK, sequence (Q14680 whole entry): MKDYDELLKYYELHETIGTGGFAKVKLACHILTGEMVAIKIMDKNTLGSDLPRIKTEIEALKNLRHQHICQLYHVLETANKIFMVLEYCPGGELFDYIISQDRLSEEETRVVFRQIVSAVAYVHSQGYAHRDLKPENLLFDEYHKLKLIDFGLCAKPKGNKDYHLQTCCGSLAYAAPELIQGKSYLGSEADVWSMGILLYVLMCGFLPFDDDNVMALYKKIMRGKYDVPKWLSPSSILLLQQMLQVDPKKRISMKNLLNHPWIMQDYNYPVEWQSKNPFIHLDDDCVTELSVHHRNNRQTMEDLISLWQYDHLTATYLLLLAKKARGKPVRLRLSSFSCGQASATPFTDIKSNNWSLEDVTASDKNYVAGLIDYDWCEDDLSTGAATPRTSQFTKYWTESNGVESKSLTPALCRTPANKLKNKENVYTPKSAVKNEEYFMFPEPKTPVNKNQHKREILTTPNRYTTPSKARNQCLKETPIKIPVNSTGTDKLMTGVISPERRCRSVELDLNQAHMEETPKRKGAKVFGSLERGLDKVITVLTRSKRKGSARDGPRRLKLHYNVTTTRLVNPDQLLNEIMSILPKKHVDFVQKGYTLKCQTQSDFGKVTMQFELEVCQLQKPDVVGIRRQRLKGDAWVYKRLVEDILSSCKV

SLK/STK2 = SLK/STK2 (Homo sapiens, UniProt Q9H2G2); assay: HotSpot kinase assay; details: read-out: % Enzyme Activity (relative to DMSO control), 10 uM
From the text: as §1

MARK2/PAR-1Ba = MARK2/PAR-1Ba (Homo sapiens, UniProt Q7KZI7); assay: HotSpot kinase assay; details: read-out: % Enzyme Activity (relative to DMSO control), 10 uM
TSSK3/STK22C = TSSK3/STK22C (Homo sapiens, UniProt Q96PN8); assay: HotSpot kinase assay; details: read-out: % Enzyme Activity (relative to DMSO control), 10 uM
TSSK3/STK22C, sequence (Q96PN8 whole entry): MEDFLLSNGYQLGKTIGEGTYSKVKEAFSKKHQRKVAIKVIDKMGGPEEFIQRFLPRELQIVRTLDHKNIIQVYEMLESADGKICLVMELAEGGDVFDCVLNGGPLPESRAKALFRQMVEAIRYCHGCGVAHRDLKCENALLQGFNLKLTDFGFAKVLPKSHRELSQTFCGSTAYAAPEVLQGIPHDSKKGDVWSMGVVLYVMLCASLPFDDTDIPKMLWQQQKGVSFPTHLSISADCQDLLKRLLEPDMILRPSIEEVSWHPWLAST
From the text: as §1

ULK3 = ULK3 (Homo sapiens, UniProt Q6PHR2); assay: HotSpot kinase assay; details: read-out: % Enzyme Activity (relative to DMSO control), 10 uM
[1] = test system: HEK-293 cells transfected with GFP-TIFA; assay: DF-006-induced TIFAsome formation
Method: Curve fitting and IC50 value calculations were performed with GraphPad Prism 6.
HEK-293 cells were purchased from the Cell Bank of The Chinese Academy of Sciences and routinely cultured in DMEM/High-Glucose (Hyclone). For TIFAsome analyses, the coding sequence for the GFP-TIFA fusion protein was cloned into the pcDNA3.1 plasmid. […] Each condition was conducted in sextuplicate. Cells were fixed with 4% paraformaldehyde and stained with DAPI (Shanghai Zhenghuang, Shanghai, China; C1005). Fluorescent images were acquired using a Motic upright fluorescent microscope (PA53 BIO FS6).

DNA-PK = DNA-PK (Homo sapiens, UniProt P78527); assay: HotSpot kinase assay; details: read-out: % Enzyme Activity (relative to DMSO control), 10 uM
From the text: as §1

STK25/YSK1 = STK25/YSK1 (Homo sapiens, UniProt O00506); assay: HotSpot kinase assay; details: read-out: % Enzyme Activity (relative to DMSO control), 10 uM
From the text: as §1

FLT1/VEGFR1 = FLT1/VEGFR1 (Homo sapiens, UniProt P17948); assay: HotSpot kinase assay; details: read-out: % Enzyme Activity (relative to DMSO control), 10 uM
From the text: as §1

c-MET = c-MET (Homo sapiens, UniProt P08581); assay: HotSpot kinase assay; details: read-out: % Enzyme Activity (relative to DMSO control), 10 uM
From the text: as §1

LATS2 = LATS2 (Homo sapiens, UniProt Q9NRM7); assay: HotSpot kinase assay; details: read-out: % Enzyme Activity (relative to DMSO control), 10 uM
From the text: as §1

SNRK = SNRK (Homo sapiens, UniProt Q9NRH2); assay: HotSpot kinase assay; details: read-out: % Enzyme Activity (relative to DMSO control), 10 uM
From the text: as §1

PKCg = PKCg (Homo sapiens, UniProt P05129); assay: HotSpot kinase assay; details: read-out: % Enzyme Activity (relative to DMSO control), 10 uM
From the text: as §1

ZIPK/DAPK3 = ZIPK/DAPK3 (Homo sapiens, UniProt O43293); assay: HotSpot kinase assay; details: read-out: % Enzyme Activity (relative to DMSO control), 10 uM
From the text: as §1

STK21/CIT = STK21/CIT (Homo sapiens, UniProt O14578); assay: HotSpot kinase assay; details: read-out: % Enzyme Activity (relative to DMSO control), 10 uM
From the text: as §1

PIM2 = PIM2 (Homo sapiens, UniProt Q9P1W9); assay: HotSpot kinase assay; details: read-out: % Enzyme Activity (relative to DMSO control), 10 uM
PIM2, sequence (Q9P1W9 whole entry): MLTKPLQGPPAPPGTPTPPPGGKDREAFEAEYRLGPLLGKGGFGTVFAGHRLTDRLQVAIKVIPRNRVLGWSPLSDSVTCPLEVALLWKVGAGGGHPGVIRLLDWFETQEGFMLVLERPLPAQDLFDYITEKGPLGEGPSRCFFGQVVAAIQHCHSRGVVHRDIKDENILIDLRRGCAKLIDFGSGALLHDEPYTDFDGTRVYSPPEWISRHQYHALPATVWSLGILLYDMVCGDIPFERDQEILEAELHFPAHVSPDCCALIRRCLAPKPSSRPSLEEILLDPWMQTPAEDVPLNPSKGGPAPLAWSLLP
From the text: as §1

MAST3 = MAST3 (Homo sapiens, UniProt O60307); assay: HotSpot kinase assay; details: read-out: % Enzyme Activity (relative to DMSO control), 10 uM
From the text: as §1

GSK3a = GSK3a (Homo sapiens, UniProt P49840); assay: HotSpot kinase assay; details: read-out: % Enzyme Activity (relative to DMSO control), 10 uM
MEK5 = MEK5 (Homo sapiens, UniProt Q13163); assay: HotSpot kinase assay; details: read-out: % Enzyme Activity (relative to DMSO control), 10 uM
MEK5, sequence (Q13163 whole entry): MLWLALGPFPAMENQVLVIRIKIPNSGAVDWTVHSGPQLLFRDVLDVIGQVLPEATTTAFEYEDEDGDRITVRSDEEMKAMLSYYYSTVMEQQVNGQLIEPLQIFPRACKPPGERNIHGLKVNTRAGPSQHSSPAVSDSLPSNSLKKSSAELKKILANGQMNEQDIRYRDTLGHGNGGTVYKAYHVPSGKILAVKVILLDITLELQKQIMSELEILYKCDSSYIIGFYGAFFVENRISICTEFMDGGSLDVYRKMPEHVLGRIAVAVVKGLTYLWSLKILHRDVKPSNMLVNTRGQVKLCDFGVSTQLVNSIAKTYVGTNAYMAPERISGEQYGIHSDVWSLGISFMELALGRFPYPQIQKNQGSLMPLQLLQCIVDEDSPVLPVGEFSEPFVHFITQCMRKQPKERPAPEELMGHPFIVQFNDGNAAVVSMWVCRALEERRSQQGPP
From the text: as §1

EIF2AK3 = EIF2AK3 (Homo sapiens, UniProt Q9NZJ5); assay: HotSpot kinase assay; details: read-out: % Enzyme Activity (relative to DMSO control), 10 uM
From the text: as §1

mTOR/FRAP1 = mTOR/FRAP1 (Homo sapiens, UniProt P42345); assay: HotSpot kinase assay; details: read-out: % Enzyme Activity (relative to DMSO control), 10 uM
From the text: as §1

TAOK1 = TAOK1 (Homo sapiens, UniProt Q7L7X3); assay: HotSpot kinase assay; details: read-out: % Enzyme Activity (relative to DMSO control), 10 uM
PKCa = PKCa (Homo sapiens, UniProt P17252); assay: HotSpot kinase assay; details: read-out: % Enzyme Activity (relative to DMSO control), 10 uM
From the text: as §1

MRCKa/CDC42BPA = MRCKa/CDC42BPA (Homo sapiens, UniProt Q5VT25); assay: HotSpot kinase assay; details: read-out: % Enzyme Activity (relative to DMSO control), 10 uM
From the text: as §1

HIPK4 = HIPK4 (Homo sapiens, UniProt Q8NE63); assay: HotSpot kinase assay; details: read-out: % Enzyme Activity (relative to DMSO control), 10 uM
[2] = Pharmacokinetic analyses, oral once daily for 10 days; details: for CAVG: 10th daily dose; for concentration at 0 h / concentration at 0.5 h / concentration at 1 h / concentration at 2 h / concentration at 4 h / concentration at 6 h / concentration at 8 h / concentration at 12 h / concentration at 24 h / AUC / CL/F / Cmax / Tmax / Vd/F / half-life: male, C57BL/6J, mouse, plasma; for concentration at 0 h / concentration at 0.5 h / concentration at 1 h / concentration at 2 h / concentration at 4 h / concentration at 6 h / concentration at 8 h / concentration at 12 h / concentration at 24 h: oral, DF-003 Conc. in plasma; for concentration at 0 h: 0 hours after 10th dosing; for concentration at 0.5 h: 0.5 hours after 10th dosing; for concentration at 1 h: 1 hour after 10th dosing; for concentration at 2 h: 2 hours after 10th dosing; for concentration at 4 h: 4 hours after 10th dosing; for concentration at 6 h: 6 hours after 10th dosing; for concentration at 8 h: 8 hours after 10th dosing; for concentration at 12 h: 12 hours after 10th dosing; for concentration at 24 h: 24 hours after 10th dosing; for AUC / CL/F / Cmax / Tmax / Vd/F / half-life: po
Method: Mice were housed in a specific pathogen-free (SPF) animal facility at Drug Farm (Shanghai, China) in individually ventilated cages on a 12 h light/dark cycle with a bedding of wood shavings and ad libitum access to rodent chow. […] Six 8 week-old male C57BL/6J mice from Zhejiang Vital River Laboratory Animal Technology Co., Ltd. (Zhejiang, China) were randomly assigned to 2 groups (3 animals/group). […] The oral dosing volume for all animals was 10 mL/kg body weight. Drinking water and certified rodent diet were available to animals ad libitum, except that animals were fasted 16 h prior to the last administration until 4 h after the last dosing. Blood samples at 0 (right before the last dosing), 0.5, 1, 2, 4, 6, 8, 12, and 24 h after the 10th dosing were collected from the tail vein and transferred into tubes containing K2-EDTA. The tubes were gently inverted several times to ensure mixing and immediately placed on wet ice. Plasma was obtained by centrifugation at 3200 × g at 4 °C for 10 min and stored at ≤ -60 °C until subsequent analysis. Twenty-four hours after the 10th dosing, the animals were euthanized by CO2 inhalation.

[3] = 3 mg/kg, 3 mg/kg, individual animals
[4] = 5 mg/kg, 5 mg/kg, individual animals

MST4, sequence (Q9P289 whole entry): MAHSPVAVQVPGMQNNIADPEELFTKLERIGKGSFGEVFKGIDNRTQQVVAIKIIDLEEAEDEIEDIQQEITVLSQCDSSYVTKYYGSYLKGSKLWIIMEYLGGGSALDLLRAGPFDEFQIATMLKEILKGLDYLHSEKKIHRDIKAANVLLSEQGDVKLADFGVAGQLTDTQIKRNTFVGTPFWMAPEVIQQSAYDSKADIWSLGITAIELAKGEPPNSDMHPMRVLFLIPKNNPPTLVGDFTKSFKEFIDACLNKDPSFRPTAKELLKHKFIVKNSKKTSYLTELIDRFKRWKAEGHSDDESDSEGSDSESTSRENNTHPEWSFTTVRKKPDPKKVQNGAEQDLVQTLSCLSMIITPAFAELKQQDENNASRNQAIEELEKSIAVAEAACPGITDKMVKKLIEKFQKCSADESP

## C#C[C@@](C)(c1ccc(Cl)cc1)c1csc(NC(=O)c2c(F)cc(N3CCNCC3)cc2F)n1 (stereo in doubt) [DF-003]
MST4
  remaining activity at 10 µM: 69.3%
MLK2/MAP3K10
  remaining activity at 10 µM: 67.5%
AMPK(A1/B1/G1)
  remaining activity at 10 µM: 119%
FMS
  remaining activity at 10 µM: 75.7%
PAK1
  remaining activity at 10 µM: 122%
MELK
  remaining activity at 10 µM: 96.6%
SLK/STK2
  remaining activity at 10 µM: 89%
MARK2/PAR-1Ba
  remaining activity at 10 µM: 91.2%
TSSK3/STK22C
  remaining activity at 10 µM: 53.7%
ULK3
  remaining activity at 10 µM: 114%
[1]; 10 nM to 1 μM, 1 μM DF-006 1 h
  effect on DF-006-induced TIFAsome formation: potently suppressed DF-006-induced TIFAsome formation
[1]; 200 nM DF-003+1 μM DF-006
  Cells with TIFAsomes /GFP positive cells (%): 2.74% and 2.86% and 1.45% and 4.74% and 3.09%
[1]; 1 μM DF-003+1 μM DF-006
  Cells with TIFAsomes /GFP positive cells (%): 1.25% and 0% and 3.05% and 2.92% and 5.22%
DNA-PK
  remaining activity at 10 µM: 85.3%
STK25/YSK1
  remaining activity at 10 µM: 82.9%
FLT1/VEGFR1
  remaining activity at 10 µM: 79.2%
c-MET
  remaining activity at 10 µM: 90.7%
LATS2
  remaining activity at 10 µM: 45.3%
SNRK
  remaining activity at 10 µM: 80.5%
PKCg
  remaining activity at 10 µM: 93.5%
ZIPK/DAPK3
  remaining activity at 10 µM: 68.5%
STK21/CIT
  remaining activity at 10 µM: 108%
PIM2
  remaining activity at 10 µM: 87.6%
MAST3
  remaining activity at 10 µM: 82.3%
GSK3a
  remaining activity at 10 µM: 195%
MEK5
  remaining activity at 10 µM: 109%
EIF2AK3
  remaining activity at 10 µM: 81.9%
mTOR/FRAP1
  remaining activity at 10 µM: 92.1%
TAOK1
  remaining activity at 10 µM: 16.8%
PKCa
  remaining activity at 10 µM: 134%
MRCKa/CDC42BPA
  remaining activity at 10 µM: 85.9%
HIPK4
  remaining activity at 10 µM: 73.6%
[2]; 3 mg/kg oral
  CAVG: 75.6 ± 5.53 ng/mL
[2]; 5 mg/kg oral
  CAVG: 164 ± 29.0 ng/mL
[2]; 3 and 5 mg/kg oral, 10th dose
  average time to Cmax (Tmax): 2 to 2.67 h
[2]; Cerebral Cortex, 3 mg/kg, individual animals
  DF-003 Conc. in tissues 24 hr after 10th dosing: 1358 and 1241 and 1263
[2]; Cerebral Cortex, 5 mg/kg, individual animals
  DF-003 Conc. in tissues 24 hr after 10th dosing: 2520 and 2846 and 2696
[2]; Optic Nerve, 3 mg/kg, 6 optic nerves from 3 mice of same dosing group combined into one sample
  DF-003 Conc. in tissues 24 hr after 10th dosing: 1104
[2]; Optic Nerve, 5 mg/kg, 6 optic nerves from 3 mice of same dosing group combined into one sample
  DF-003 Conc. in tissues 24 hr after 10th dosing: 1615
[2]; Retina, 3 mg/kg, individual animals
  DF-003 Conc. in tissues 24 hr after 10th dosing: 620 and 646 and 1356
[2]; Retina, 5 mg/kg, individual animals
  DF-003 Conc. in tissues 24 hr after 10th dosing: 1351 and 1933 and 1171
[2]; [3]
  concentration at 0 h: 46.4 ng/mL
  concentration at 0.5 h: 78.6 ng/mL
  concentration at 1 h: 110 ng/mL
  concentration at 2 h: 123 ng/mL
  concentration at 4 h: 115 ng/mL
  concentration at 6 h: 92 ng/mL
  concentration at 8 h: 99.9 ng/mL
  concentration at 12 h: 73.9 ng/mL
  concentration at 24 h: 19.5 ng/mL
[2]; [4]
  concentration at 0 h: 142 ng/mL
  concentration at 0.5 h: 168 ng/mL
  concentration at 1 h: 228 ng/mL
  concentration at 2 h: 218 ng/mL
  concentration at 4 h: 238 ng/mL
  concentration at 6 h: 174 ng/mL
  concentration at 8 h: 162 ng/mL
  concentration at 12 h: 122 ng/mL
  concentration at 24 h: 45.6 ng/mL
[2]; 3 mg/kg
  AUC: 1820 ± 132 ng·h/mL
  CL/F: 27.6 ± 1.94 mL/min/kg
  Cmax: 160 ng/mL
  Tmax: 2 h
  Vd/F: 18.3 ± 1.55 L/kg
  half-life: 7.69 h
[2]; 5 mg/kg
  AUC: 3940 ± 697 ng·h/mL
  CL/F: 21.6 ± 4.11 mL/min/kg
  Cmax: 310 ng/mL
  Tmax: 2.67 ± 1.15 h
  Vd/F: 16.5 ± 3.68 L/kg
  half-life: 8.81 h
